Data taken from US20070203085A1, “Methods For Interfering With Fibrosis” (priority 2004, published 2007).

Key:
sgk1+/+ and sgk1−/− mice [1] = test: Cardiac fibrosis by microscopy (H&E and Masson's trichrome) after DOCA/high salt; assay type: in vivo; settings: 18 day DOCA/high salt
Description: Hearts from untreated or DOCA/high salt treated (18 days) sgk1+/+ and sgk1−/− mice were quickly removed under anesthesia, the weight determined and fixed in 4% paraformaldehyde/0.1 M sodium phosphate buffer (pH 7.2) overnight and embedded in paraffin. Dewaxed 5 μm thick heart muscle sections were stained with H&E and Masson's trichrome (30). Stained paraffin sections were analysed on a Zeiss Axioplan microscope (Zeiss, Jena, Germany). Areas were measured on digitized images using an Axiocam video camera (Zeiss, Jena, Germany) using the manufacture's software (Axiovision, Zeiss, Jena, Germany). Total tissue areas were measured with a 4× objective; fibrotic areas were identified and quantified using a 20× objective. The degree of fibrosis was then calculated as a percentage of total tissue area.

CTGF [2] = test: Cardiac CTGF expression by Western blotting after DOCA/salt; assay type: in vivo, mice; settings: for CTGF expression in cardiac tissue (Western blot): DOCA/high salt for 18 days
Description: Whole hearts from untreated and DOCA/high salt treated (18 days) sgk1+/+ and sgk1−/− mice were removed and immediately frozen in liquid nitrogen, the tissue was then homogenised using a glass homogeniser in lysis buffer containing 50 mM Tris-HCl, pH 7.4, 100 mM NaCl, 1 mM EDTA, 1 mM EGTA, 50 mM sodium fluoride, 5 mM sodium pyrophosphate, 1 mM sodium orthovanadate, 1% Triton X-100, 1% sodium deoxycholate, 1% sodium doecyl sulphate and protease cocktail inhibitor (Roche, Basel, Switzerland), the homogenates were centrifuged at 10,000 rpm, 4° C. for 15 min, the supernatant was removed and used for Western blotting. sgk1+/+ and sgk1−/− mouse lung fibroblasts in 60 mm culture dishes were serum deprived for 18 h prior to the addition of DOCA (10 μM), 24 h later the cells were lysed. Whole cell lysates (50 μg) and heart homogenates (70 μg) were separated by SDS-page (10% Tris-Glycine), transferred to nitrocellulose membranes, blocked for 1 h in blocking buffer (5% fat-free milk in PBS containing 0.1% Tween) and incubated overnight at 4° C. with a goat polyclonal CTGF primary antibody (diluted 1:400 in blocking buffer, Santa Cruz, Heidelberg, Germany). After incubation with a HRP-conjugated anti-goat secondary antibody (Santa Cruz, Heidelberg, Germany) visualization with ECL was performed according to manufacture's instructions (Amersham, Freiburg, Germany). Membranes were also probed with a primary β-tubulin (Santa Cruz, Heidelberg, Germany) antibody as a loading control. Densitometric analysis of CTGF was performed using Scion Image (Scion, Md., USA) and normalized using β-tubulin.

sgk1+/+ and sgk1−/− mice [3] = test: Cardiac gene transcription after DOCA/high salt (microarray analysis, real-time PCR); assay type: in vivo
Description: Total RNA was isolated from hearts obtained from untreated or DOCA/high salt (48 h) treated sgk1+/+ and sgk1−/− mice using the Qiagen RNeasy Fibrous Tissue Midi Kit according to the manufacture's instructions (Qiagen, Hilden, Germany). Using total RNA from hearts of DOCA/high salt or sham-treated sgk1−/− and sgk1+/+ mice, second-strand syntheses were generated using a commercially available kit (Invitrogen Life Technologies, Rockville, Md.) and an oligo d(T)24 T7 primer. cRNA was generated using biotin-labelled CTP and UTP by in vitro transcription using a T7 promoter-coupled double stranded cDNA as template and the T7 RNA transcript labelling kit (ENZO Diagnostics, Farmingdale, N.Y.). The cRNA was fragmented and hybridised to the mouse genome MOE430A oligonucleotide array chip (Affymetrix, Santa Clara, Calif.). The array chips were then stained using phycoerythrin conjugated streptavidin (Molecular Probes, Invitrogen Life Technologies, Rockville, Md.) and the fluorescence intensities were determined using a laser confocal scanner (Agilent, Affymetrix, Santa Clara, Calif.). The intensity of the scanned images was analysed using Microarray Suite Version 5 (Affymetrix, Santa Clara, Calif.). Global scaling was applied to all arrays such that the mean intensity of each array was equivalent. In global scaling, the raw signal value of each probe cell was multiplied by a scaling factor.

CTGF [4] = test: CTGF expression in primary mouse lung fibroblasts after DOCA stimulation (Western blot); assay type: cell-based; settings: DOCA 10 μM, 24 h; sgk1+/+ and sgk1−/− cells
Description: To harvest lung fibroblasts from sgk1+/+ and sgk1−/− mice (8-14 weeks old), whole lungs were removed and transferred to 90 mm cell culture dishes containing 2 ml of DMEM supplemented with 10% fetal calf serum, 100 U/ml Penicillin, […] Streptomycin and 2 mM L-glutamine (Gibco-Invitrogen, Karlsruhe, Germany). The tissue was cut into small pieces and cultured under standard cell culture conditions (37° C., 5% CO2). Cell growth was observed 2-4 days after initial plating. Fibroblasts were identified by positive staining for fibronectin and used in experiments between passages 2-6. Increase of SGK1 mRNA by DOCA treatment and absence of SGK1 in sgk1−/− mice lung fibroblasts was confirmed by realtime PCR (data not shown). […]

sgk1+/+ and sgk1−/− mice [5] = test: DOCA/high salt treatment of sgk1+/+ and sgk1−/− mice: blood pressure, plasma electrolytes, salt intake; assay type: in vivo
Description: To explore whether SGK1 may be involved in the signalling of cardiac fibrosis a pellet continuously releasing DOCA (2.4 mg/day) was implanted into both sgk1+/+ and sgk1−/− mice along with 1% NaCl in the drinking water.
Mice deficient in SGK1 (sgk1−/−) were generated as previously described 9. Wild type (sgk1+/+) and SGK1 knockout (sgk1−/−) mice were implanted with a 21 day release 50 mg DOCA pellet (Innovative Research of America, Sarasota, Fla.) in the neck area (28) during anesthesia (intraperitoneal medetomidin 0.5 mg/kg+midazolam 5 mg/kg+fentanyl 0.05 mg/kg which was reversed by subcutaneous atipamezol 2.5 mg/kg+flumazenil 0.5 mg/kg+naloxon 1.2 mg/kg). One day before implantation of DOCA pellets, sgk1−/− and sgk1+/+ mice were weighed and placed individually in metabolic cages (Tecniplast Hohenpeissenberg, Germany) for basal 24 hour urine collection. Mice had free access to a standard mouse diet (Altromin, Heidenau, Germany) and tap water and/or 1% or 2% NaCl. The inner wall of the metabolic cages was siliconized and urine was collected under water-saturated oil. Systolic arterial blood pressure was determined by the tail-cuff method before and on days 1, 2, 4, 6, 10 and 14 of DOCA/1% NaCl treatment 29. On day 18 of DOCA/high salt treatment, 24 hour urine and body weight were again determined, animals anesthetized (intraperitoneal ketamine and xylazine) and 200 μl of blood withdrawn into heparinized capillaries by puncturing the retro-orbital plexus. Plasma and urinary concentrations of Na+ and K+ were measured by flame photometer (ELEX 6361, Eppendorf, Germany), Cl— concentrations by electrometric titration (Chloridometer 6610, Eppendorf, Germany), Ca2+, phosphorus and creatinine were assessed by commercial diagnostic kits (Sigma, Munich, Germany).

SMILES: CC(=O)OCC(=O)[C@H]1CC[C@H]2[C@@H]3CCC4=CC(=O)CC[C@]4(C)[C@H]3CC[C@]12C [DOCA]
- fibrosis of the heart (sgk1+/+ and sgk1−/− mice [1]; sgk1+/+ mice): marked fibrosis of the heart
- fibrosis of the heart (sgk1+/+ and sgk1−/− mice [1]; sgk1−/− mice): without any appreciable effect on the heart
- cardiac CTGF expression, CTGF/β-tubulin densitometric analysis (CTGF [2]; sgk1+/+ mice, DOCA/1% salt (untreated: 0.9±0.2), P<0.01): 4.7±1.0 arbitrary units
- CTGF expression in cardiac tissue (Western blot) (CTGF [2]; sgk1+/+ mice): markedly upregulated CTGF expression
- cardiac CTGF expression, CTGF/β-tubulin densitometric analysis (CTGF [2]; sgk1−/− mice, DOCA/high salt (untreated: 1.5±1.0)): 1.7±0.7 arbitrary units
- CTGF expression in cardiac tissue (Western blot) (CTGF [2]; sgk1−/− mice): unaltered
- fold increase in SGK1/GAPDH copy number (SGK1 transcription) (sgk1+/+ and sgk1−/− mice [3]; heart, sgk1+/+ mice, 48 h DOCA/high salt vs untreated sgk1+/+ mice, real-time PCR): 2.10±0.14 fold
- induction of fibrosis genes (procollagens, integrin α5, proteoglycan 4, CTGF), microarray (sgk1+/+ and sgk1−/− mice [3]; sgk1+/+ mice, 48 h DOCA/high salt): induced several genes involved in the pathogenesis of fibrosis
- induction of fibrosis genes (procollagens, integrin α5, proteoglycan 4, CTGF), microarray (sgk1+/+ and sgk1−/− mice [3]; sgk1−/− mice, DOCA/high salt): none of these genes were induced
- CTGF levels in primary mouse lung fibroblasts (CTGF [4]): elevated CTGF levels only in the sgk1+/+ cells
- hypokalemia (sgk1+/+ and sgk1−/− mice [5]; DOCA/high salt for 18 days, sgk1+/+ vs sgk1−/− mice): significant hypokalemia in sgk1+/+ but not in sgk1−/− mice
- salt intake from bottle 2 (1% NaCl) (sgk1+/+ and sgk1−/− mice [5]; sgk1+/+ mice, after implanting the DOCA pellet): pronounced increase in salt intake
- blood pressure (sgk1+/+ and sgk1−/− mice [5]; sgk1−/− and sgk1+/+ mice, DOCA/high salt for 18 days): statistically significant increases in blood pressure
